Results published in US7335688B2, “Bicyclic cannabinoid agonists for the cannabinoid receptor” (University of Connecticut, priority 1999, dated 2008).

Target: T1, CB2 receptor (Mus musculus, UniProt P47936)
T1 construct: membranes were prepared from frozen mouse spleen; from tissue; host or cells: mouse spleen membranes
Assay: CB2 receptor binding assay ([3H] CP-55,940 displacement, mouse spleen membranes)
Conditions: CB2 (mouse spleen) versus CB1 (rat forebrain membranes) binding affinity
Method: As used herein, “binding affinity” (Ki) is represented by the IC50 value which is the concentration of an analog required to occupy the 50% of the total number (Bmax) of the receptors. The lower the IC50 value the higher the binding affinity. […] The AM1703 material was tested for CB2 receptor binding affinity and for CB1 receptor affinity (to determine selectivity for the CB2 receptor).
Membranes, previously frozen at −80° C., were thawed on ice. To the stirred suspension was added three volumes of TME (25 mM Tris-HCI buffer, 5 mM MgCl2 and 1 mM EDTA) at a pH 7.4. The suspension was incubated at 4° C. for 30 min. At the end of the incubation, the membranes were pelleted and washed three times with TME.
The treated membranes were subsequently used in the binding assay described below. Approximately 30 μg of membranes were incubated in silanized 96-well microtiter plate with TME containing 0.1% essentially fatty acid-free bovine serum albumin (BSA), 0.8 nM [^3H] […] Radioactivity was detected using MicroScint 20 scintillation cocktail added directly to the dried filterplates, and the filterplates were counted using a Packard Instruments Top-Count. Nonspecific binding was assessed using 100 nM CP-55,940. […] CP-55,940, determined using buffer and 100 nM CP-55,940. The normalized data was analyzed using a 4-parameter nonlinear logistic equation to yield IC50 values. […]

T1 sequence (P47936 whole entry): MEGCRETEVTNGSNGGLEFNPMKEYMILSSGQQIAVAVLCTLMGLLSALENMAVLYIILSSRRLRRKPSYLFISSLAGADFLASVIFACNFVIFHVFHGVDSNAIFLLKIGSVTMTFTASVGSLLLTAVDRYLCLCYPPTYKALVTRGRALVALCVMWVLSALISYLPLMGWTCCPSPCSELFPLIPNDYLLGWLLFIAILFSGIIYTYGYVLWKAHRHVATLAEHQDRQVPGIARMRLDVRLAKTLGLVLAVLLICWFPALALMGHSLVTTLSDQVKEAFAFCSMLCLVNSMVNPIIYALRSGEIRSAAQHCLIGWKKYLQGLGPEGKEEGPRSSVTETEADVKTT

Question: For C#CCCCCC(C)(C)c1cc(O)c([C@@H]2CC(=O)[C@@H]3C[C@H]2C3(C)C)c(O)c1 [AM1703], which “CB2 selectivity over CB1” value is on record?
Answer: ~500 fold
